For 3 molecules, ED50 results are on record in US4435426A, “Ethers of phenol active on the cardiovascular system, process for preparing same and use thereof in drugs” (Societe Anonyme dite: Sanofi, priority 1981, dated 1984).

Molecules are shown by their SMILES.

Experiment [1] concerns the target T1, adrenergic β receptors (β2) (Canis lupus familiaris, UniProt P54833).
T1 construct: from tissue; host or cells: whole anaesthetized dog (in vivo, systemic arterial pressure)
The experiment in a line: Antagonism of the effects of isoprenaline: hypertension (so in the source) (β2), anaesthetized dog, intravenous. Type of experiment: in vivo. The settings on record: 50% inhibition of hypertension (β2) induced by intravenous isoprenaline, i.v., read-out: ID 50 isoprenaline β2. The procedure:
(§1) The dog is anaesthetized with sodium pentobarbital administered intravenously at the dose of 30 mg/kg. A canula placed in the short saphenous vein allows the products to be injected intravenously. The animal is intubed and breathes spontaneously.
(§2) The cardiac frequency and the systemic arterial pressure are studied and the variations of these parameters are observed after intravenous injection of the product to be tested, each product being injected at increasing doses.
(§3) The antagonism of the products vis-a-vis the β stimulant cardiovascular effects of isoprenaline on the adrenergic β receptors was sought. The results are shown in Table below and expressed in ID 50: this is the dose expressed in mg/kg which provokes 50% inhibition of tachycardia (β1) and of hypertension (β2) induced by the isoprenaline administered by intravenous route.

Experiment [2] has as its target T2, adrenergic β receptors (β1) (Canis lupus familiaris, UniProt P79148).
T2 construct: The dog is anaesthetized with sodium pentobarbital; from tissue; host or cells: whole anaesthetized dog (in vivo, heart rate)
The experiment in a line: Antagonism of the effects of isoprenaline: tachycardia (β1), anaesthetized dog, intravenous. The format is in vivo. Particulars: 50% inhibition of tachycardia (β1) induced by intravenous isoprenaline, i.v., read-out: ID 50 isoprenaline β1. The procedure:
as §1, §2, §3

T1 sequence (P54833 whole entry): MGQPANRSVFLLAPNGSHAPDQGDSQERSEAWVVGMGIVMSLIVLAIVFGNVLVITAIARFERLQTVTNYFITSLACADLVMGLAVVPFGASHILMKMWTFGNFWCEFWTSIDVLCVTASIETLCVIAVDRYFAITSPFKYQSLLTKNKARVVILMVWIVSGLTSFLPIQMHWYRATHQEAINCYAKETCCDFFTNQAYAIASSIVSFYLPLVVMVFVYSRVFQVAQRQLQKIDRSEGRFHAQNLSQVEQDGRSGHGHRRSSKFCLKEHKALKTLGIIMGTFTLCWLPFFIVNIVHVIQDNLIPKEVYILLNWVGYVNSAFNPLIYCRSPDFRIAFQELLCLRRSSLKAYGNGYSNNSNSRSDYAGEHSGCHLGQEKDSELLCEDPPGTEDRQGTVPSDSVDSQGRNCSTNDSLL
T2 sequence (P79148 whole entry): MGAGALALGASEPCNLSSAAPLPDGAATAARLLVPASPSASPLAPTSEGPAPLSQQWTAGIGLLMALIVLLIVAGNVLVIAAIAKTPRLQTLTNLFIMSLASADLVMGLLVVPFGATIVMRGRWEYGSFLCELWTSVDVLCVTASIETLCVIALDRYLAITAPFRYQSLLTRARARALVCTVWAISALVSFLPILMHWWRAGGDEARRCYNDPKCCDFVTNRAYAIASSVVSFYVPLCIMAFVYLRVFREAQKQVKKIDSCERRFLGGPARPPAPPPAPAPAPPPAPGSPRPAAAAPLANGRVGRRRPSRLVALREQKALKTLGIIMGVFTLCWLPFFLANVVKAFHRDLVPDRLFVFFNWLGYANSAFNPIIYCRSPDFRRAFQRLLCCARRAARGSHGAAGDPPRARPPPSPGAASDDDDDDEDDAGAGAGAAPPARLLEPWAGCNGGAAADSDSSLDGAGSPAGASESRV

Turning to `CC(C)(C)NCC(O)COc1cccc2c1C(=O)CCC2` (centres unmarked) [compound 7285, 1-(8-oxo 5,6,7,8-tetrahydro 1-naphthyloxy) 2-hydroxy 3-tertiobutylamino propane], in experiment [1], the ED50 is 0.03 mg/kg.

As for `Cc1ccc(OCC(O)CNC(C)(C)C)c2c1CCCC2=O` (centres unmarked) [compound 7706], the ED50 is 0.01 mg/kg in experiment [1] and 0.1 mg/kg in experiment [2].

`C#CC(C)(C)NCC(O)COc1ccc(C)c2c1C(=O)CCC2` (centres unmarked) [compound 7760]: the ED50 came to 0.03 mg/kg in experiment [1] and 0.1 mg/kg in experiment [2].
